Assay results published in ChEMBL document CHEMBL1909046, “DrugMatrix in vitro pharmacology data”.
pIC50, pKi: −log10 of the molar value.

Biological target: Vasopressin V1a receptor (Homo sapiens, UniProt P37288); further: in other assays of this panel Not Active means under 50% inhibition at 10 µM
Assay type: cell membranes, Membrane
Conditions: hek293

Sequence of Vasopressin V1a receptor (P37288 whole entry): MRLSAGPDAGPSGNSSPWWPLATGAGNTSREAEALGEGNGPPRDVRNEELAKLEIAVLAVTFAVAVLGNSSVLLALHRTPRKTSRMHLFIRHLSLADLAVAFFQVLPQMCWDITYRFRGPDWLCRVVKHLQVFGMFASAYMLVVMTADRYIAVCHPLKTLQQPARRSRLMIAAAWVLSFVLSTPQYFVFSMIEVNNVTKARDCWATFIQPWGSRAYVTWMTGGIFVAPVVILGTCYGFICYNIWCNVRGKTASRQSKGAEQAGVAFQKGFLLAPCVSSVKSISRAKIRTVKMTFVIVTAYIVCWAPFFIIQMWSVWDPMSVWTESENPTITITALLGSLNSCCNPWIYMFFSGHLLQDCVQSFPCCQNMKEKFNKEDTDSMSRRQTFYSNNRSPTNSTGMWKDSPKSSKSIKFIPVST

Compound | IC50
O=S(=O)([O-])CCS.[Na+] [MESNA] | Not Active
CC(=O)Nc1cccc(O)c1 [METACETAMOL] | Not Active
Oc1ccc(OCc2ccccc2)cc1 [MONOBENZONE] | Not Active
CC(C)(Oc1ccc(C2CCCc3ccccc32)cc1)C(=O)O (stereo unspecified) [NAFENOPIN] | Not Active
CC(C)[C@H]1CC[C@H](C(=O)N[C@H](Cc2ccccc2)C(=O)O)CC1 [NATEGLINIDE] | Not Active
CCN[C@@H]1C[C@H](N)[C@@H](O[C@H]2OC(CN)=CC[C@H]2N)[C@H](O)[C@H]1O[C@H]1OC[C@](C)(O)[C@H](NC)[C@H]1O [NETILMICIN] | Not Active
CCOC(=O)C1=C(C)NC(C)=C(C(=O)OC)C1c1cccc([N+](=O)[O-])c1 (stereo unspecified) [NITRENDIPINE] | Not Active
C#C[C@]1(OC(C)=O)CC[C@H]2[C@@H]3CCC4=CC(=O)CC[C@@H]4[C@H]3CC[C@@]21C [NORETHINDRONE ACETATE] | Not Active
COc1ccc2[nH]c([S+]([O-])Cc3ncc(C)c(OC)c3C)nc2c1 (stereo unspecified) [OMEPRAZOLE] | Not Active
Cc1nccn1CC1CCc2c(c3ccccc3n2C)C1=O (stereo unspecified) [ONDANSETRON] | Not Active

Biological target: Protein kinase C alpha type (Homo sapiens, UniProt P17252);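 further: inhibition of PKCalpha kinase activity measured in an enzyme assay with histone as the phosphorylation substrate; in other assays of this panel Not Active means under 50% inhibition at 10 µM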
Assay type: cell-based
Conditions: sf9

Compound | IC50
O=S(=O)([O-])CCS.[Na+] [MESNA] | Not Active
CC(=O)Nc1cccc(O)c1 [METACETAMOL] | Not Active
Oc1ccc(OCc2ccccc2)cc1 [MONOBENZONE] | Not Active
CC(C)(Oc1ccc(C2CCCc3ccccc32)cc1)C(=O)O (stereo unspecified) [NAFENOPIN] | Not Active
CC(C)[C@H]1CC[C@H](C(=O)N[C@H](Cc2ccccc2)C(=O)O)CC1 [NATEGLINIDE] | Not Active
CCN[C@@H]1C[C@H](N)[C@@H](O[C@H]2OC(CN)=CC[C@H]2N)[C@H](O)[C@H]1O[C@H]1OC[C@](C)(O)[C@H](NC)[C@H]1O [NETILMICIN] | Not Active
CCOC(=O)C1=C(C)NC(C)=C(C(=O)OC)C1c1cccc([N+](=O)[O-])c1 (stereo unspecified) [NITRENDIPINE] | Not Active
C#C[C@]1(OC(C)=O)CC[C@H]2[C@@H]3CCC4=CC(=O)CC[C@@H]4[C@H]3CC[C@@]21C [NORETHINDRONE ACETATE] | Not Active
COc1ccc2[nH]c([S+]([O-])Cc3ncc(C)c(OC)c3C)nc2c1 (stereo unspecified) [OMEPRAZOLE] | Not Active
Cc1nccn1CC1CCc2c(c3ccccc3n2C)C1=O (stereo unspecified) [ONDANSETRON] | Not Active

Biological target: Estrogen receptor beta (Homo sapiens, UniProt Q92731); further: in other assays of this panel Not Active means under 50% inhibition at 10 µM
Sequence (Q92731 whole entry): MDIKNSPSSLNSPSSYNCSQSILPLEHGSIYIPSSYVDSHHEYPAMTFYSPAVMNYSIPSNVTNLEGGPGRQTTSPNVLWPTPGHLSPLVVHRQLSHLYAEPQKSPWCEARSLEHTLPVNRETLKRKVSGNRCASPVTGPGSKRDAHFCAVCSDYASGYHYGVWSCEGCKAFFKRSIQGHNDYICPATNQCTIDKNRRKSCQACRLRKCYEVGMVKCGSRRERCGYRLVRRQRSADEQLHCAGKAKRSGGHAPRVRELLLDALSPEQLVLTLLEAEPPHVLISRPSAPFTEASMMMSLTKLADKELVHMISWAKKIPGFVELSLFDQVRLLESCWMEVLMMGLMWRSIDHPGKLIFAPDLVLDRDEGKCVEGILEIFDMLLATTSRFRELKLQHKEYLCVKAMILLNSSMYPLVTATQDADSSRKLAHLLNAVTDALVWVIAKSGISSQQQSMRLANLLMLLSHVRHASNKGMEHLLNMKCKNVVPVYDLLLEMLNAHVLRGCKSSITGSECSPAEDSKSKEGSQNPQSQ
Conditions: sf9

Compound | IC50
O=S(=O)([O-])CCS.[Na+] [MESNA] | Not Active
CC(=O)Nc1cccc(O)c1 [METACETAMOL] | Not Active
Oc1ccc(OCc2ccccc2)cc1 [MONOBENZONE] | Not Active
CC(C)(Oc1ccc(C2CCCc3ccccc32)cc1)C(=O)O (stereo unspecified) [NAFENOPIN] | Not Active
CC(C)[C@H]1CC[C@H](C(=O)N[C@H](Cc2ccccc2)C(=O)O)CC1 [NATEGLINIDE] | Not Active
CCN[C@@H]1C[C@H](N)[C@@H](O[C@H]2OC(CN)=CC[C@H]2N)[C@H](O)[C@H]1O[C@H]1OC[C@](C)(O)[C@H](NC)[C@H]1O [NETILMICIN] | Not Active
CCOC(=O)C1=C(C)NC(C)=C(C(=O)OC)C1c1cccc([N+](=O)[O-])c1 (stereo unspecified) [NITRENDIPINE] | Not Active
C#C[C@]1(OC(C)=O)CC[C@H]2[C@@H]3CCC4=CC(=O)CC[C@@H]4[C@H]3CC[C@@]21C [NORETHINDRONE ACETATE] | Not Active
COc1ccc2[nH]c([S+]([O-])Cc3ncc(C)c(OC)c3C)nc2c1 (stereo unspecified) [OMEPRAZOLE] | Not Active
Cc1nccn1CC1CCc2c(c3ccccc3n2C)C1=O (stereo unspecified) [ONDANSETRON] | Not Active

Biological target: T1, Progesterone receptor (Bos taurus, UniProt Q690N0)
T1 sequence (Q690N0 whole entry): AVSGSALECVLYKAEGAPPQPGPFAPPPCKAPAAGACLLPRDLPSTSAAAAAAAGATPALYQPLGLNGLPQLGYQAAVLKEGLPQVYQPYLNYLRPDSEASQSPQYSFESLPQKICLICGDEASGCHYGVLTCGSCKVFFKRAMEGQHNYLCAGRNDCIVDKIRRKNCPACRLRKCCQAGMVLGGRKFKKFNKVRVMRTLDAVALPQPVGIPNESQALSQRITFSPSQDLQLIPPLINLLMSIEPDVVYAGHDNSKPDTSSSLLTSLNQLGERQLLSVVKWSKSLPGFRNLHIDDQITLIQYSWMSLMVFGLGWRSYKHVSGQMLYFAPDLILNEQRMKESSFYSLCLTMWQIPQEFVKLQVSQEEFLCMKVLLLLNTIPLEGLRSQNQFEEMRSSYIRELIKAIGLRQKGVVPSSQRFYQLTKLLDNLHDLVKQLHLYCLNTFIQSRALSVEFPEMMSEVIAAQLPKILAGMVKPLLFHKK
Test: DRUGMATRIX: Progesterone radioligand binding (ligand: [3H] R-5020)
Assay type: tissue-based, Uterus
Conditions: Not Active = under 50% inhibition at 10 µM

Compound | IC50
O=S(=O)([O-])CCS.[Na+] [MESNA] | Not Active
CC(=O)Nc1cccc(O)c1 [METACETAMOL] | Not Active
Oc1ccc(OCc2ccccc2)cc1 [MONOBENZONE] | Not Active
CC(C)(Oc1ccc(C2CCCc3ccccc32)cc1)C(=O)O (stereo unspecified) [NAFENOPIN] | Not Active
CC(C)[C@H]1CC[C@H](C(=O)N[C@H](Cc2ccccc2)C(=O)O)CC1 [NATEGLINIDE] | Not Active
CCN[C@@H]1C[C@H](N)[C@@H](O[C@H]2OC(CN)=CC[C@H]2N)[C@H](O)[C@H]1O[C@H]1OC[C@](C)(O)[C@H](NC)[C@H]1O [NETILMICIN] | Not Active
CCOC(=O)C1=C(C)NC(C)=C(C(=O)OC)C1c1cccc([N+](=O)[O-])c1 (stereo unspecified) [NITRENDIPINE] | Not Active
COc1ccc2[nH]c([S+]([O-])Cc3ncc(C)c(OC)c3C)nc2c1 (stereo unspecified) [OMEPRAZOLE] | Not Active
Cc1nccn1CC1CCc2c(c3ccccc3n2C)C1=O (stereo unspecified) [ONDANSETRON] | Not Active

Same assay, conditions: Not Active = under 50% inhibition at 10 µM; read-out: IC50

Compound | pIC50
C#C[C@]1(OC(C)=O)CC[C@H]2[C@@H]3CCC4=CC(=O)CC[C@@H]4[C@H]3CC[C@@]21C [NORETHINDRONE ACETATE] | 7.55

Same assay, conditions: Not Active = under 50% inhibition at 10 µM; read-out: Ki

Compound | pKi
C#C[C@]1(OC(C)=O)CC[C@H]2[C@@H]3CCC4=CC(=O)CC[C@@H]4[C@H]3CC[C@@]21C [NORETHINDRONE ACETATE] | 8.44

Tested on: not listed separately
Test: DRUGMATRIX: Purinergic P2X radioligand binding (ligand: [3H] alpha, beta-Methylene-ATP)
Assay type: cell membranes, Oryctolagus cuniculus, New Zealand albino, Urinary bladder, Membrane
Conditions: Not Active = under 50% inhibition at 10 µM

Compound | IC50 | Ki
O=S(=O)([O-])CCS.[Na+] [MESNA] | Not Active | Not Active
CC(=O)Nc1cccc(O)c1 [METACETAMOL] | Not Active | Not Active
Oc1ccc(OCc2ccccc2)cc1 [MONOBENZONE] | Not Active | Not Active
CC(C)(Oc1ccc(C2CCCc3ccccc32)cc1)C(=O)O (stereo unspecified) [NAFENOPIN] | Not Active | Not Active
CC(C)[C@H]1CC[C@H](C(=O)N[C@H](Cc2ccccc2)C(=O)O)CC1 [NATEGLINIDE] | Not Active | Not Active
CCN[C@@H]1C[C@H](N)[C@@H](O[C@H]2OC(CN)=CC[C@H]2N)[C@H](O)[C@H]1O[C@H]1OC[C@](C)(O)[C@H](NC)[C@H]1O [NETILMICIN] | Not Active | Not Active
CCOC(=O)C1=C(C)NC(C)=C(C(=O)OC)C1c1cccc([N+](=O)[O-])c1 (stereo unspecified) [NITRENDIPINE] | Not Active | Not Active
C#C[C@]1(OC(C)=O)CC[C@H]2[C@@H]3CCC4=CC(=O)CC[C@@H]4[C@H]3CC[C@@]21C [NORETHINDRONE ACETATE] | Not Active | Not Active
COc1ccc2[nH]c([S+]([O-])Cc3ncc(C)c(OC)c3C)nc2c1 (stereo unspecified) [OMEPRAZOLE] | Not Active | Not Active
Cc1nccn1CC1CCc2c(c3ccccc3n2C)C1=O (stereo unspecified) [ONDANSETRON] | Not Active | Not Active

Tested on: not listed separately
Test: DRUGMATRIX: Calcium Channel Type L, Dihydropyridine radioligand binding (ligand: [3H] Nitrendipine)
Assay type: cell membranes, Rattus norvegicus, Wistar, Cerebral cortex, Membrane
Conditions: Not Active = under 50% inhibition at 10 µM

Compound | IC50 | Ki
O=S(=O)([O-])CCS.[Na+] [MESNA] | Not Active | Not Active
CC(=O)Nc1cccc(O)c1 [METACETAMOL] | Not Active | Not Active
Oc1ccc(OCc2ccccc2)cc1 [MONOBENZONE] | Not Active | Not Active
CC(C)(Oc1ccc(C2CCCc3ccccc32)cc1)C(=O)O (stereo unspecified) [NAFENOPIN] | Not Active | Not Active
CC(C)[C@H]1CC[C@H](C(=O)N[C@H](Cc2ccccc2)C(=O)O)CC1 [NATEGLINIDE] | Not Active | Not Active
CCN[C@@H]1C[C@H](N)[C@@H](O[C@H]2OC(CN)=CC[C@H]2N)[C@H](O)[C@H]1O[C@H]1OC[C@](C)(O)[C@H](NC)[C@H]1O [NETILMICIN] | Not Active | Not Active
C#C[C@]1(OC(C)=O)CC[C@H]2[C@@H]3CCC4=CC(=O)CC[C@@H]4[C@H]3CC[C@@]21C [NORETHINDRONE ACETATE] | Not Active | Not Active
COc1ccc2[nH]c([S+]([O-])Cc3ncc(C)c(OC)c3C)nc2c1 (stereo unspecified) [OMEPRAZOLE] | Not Active | Not Active
Cc1nccn1CC1CCc2c(c3ccccc3n2C)C1=O (stereo unspecified) [ONDANSETRON] | Not Active | Not Active

Same assay, conditions: Not Active = under 50% inhibition at 10 µM; read-out: IC50

Compound | pIC50
CCOC(=O)C1=C(C)NC(C)=C(C(=O)OC)C1c1cccc([N+](=O)[O-])c1 (stereo unspecified) [NITRENDIPINE] | 9.42

Same assay, conditions: Not Active = under 50% inhibition at 10 µM; read-out: Ki

Compound | pKi
CCOC(=O)C1=C(C)NC(C)=C(C(=O)OC)C1c1cccc([N+](=O)[O-])c1 (stereo unspecified) [NITRENDIPINE] | 9.61

Biological target: T2, Neuropeptide Y receptor type 2 (Homo sapiens, UniProt P49146); further: in other assays of this panel Not Active means under 50% inhibition at 10 µM
T2 sequence (P49146 whole entry): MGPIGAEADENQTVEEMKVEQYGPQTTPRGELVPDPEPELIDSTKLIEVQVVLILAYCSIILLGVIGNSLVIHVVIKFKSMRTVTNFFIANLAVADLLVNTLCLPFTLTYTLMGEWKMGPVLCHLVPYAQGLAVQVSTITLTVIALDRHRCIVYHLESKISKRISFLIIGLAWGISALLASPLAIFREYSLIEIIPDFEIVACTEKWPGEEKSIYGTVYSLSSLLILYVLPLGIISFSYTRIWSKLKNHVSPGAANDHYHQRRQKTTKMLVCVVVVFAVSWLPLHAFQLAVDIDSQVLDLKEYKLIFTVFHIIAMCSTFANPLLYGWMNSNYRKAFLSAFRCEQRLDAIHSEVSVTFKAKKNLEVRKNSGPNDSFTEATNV
Assay type: cell membranes, Membrane
Conditions: kan-ts

Compound | IC50
O=S(=O)([O-])CCS.[Na+] [MESNA] | Not Active
CC(=O)Nc1cccc(O)c1 [METACETAMOL] | Not Active
Oc1ccc(OCc2ccccc2)cc1 [MONOBENZONE] | Not Active
CC(C)(Oc1ccc(C2CCCc3ccccc32)cc1)C(=O)O (stereo unspecified) [NAFENOPIN] | Not Active
CC(C)[C@H]1CC[C@H](C(=O)N[C@H](Cc2ccccc2)C(=O)O)CC1 [NATEGLINIDE] | Not Active
CCN[C@@H]1C[C@H](N)[C@@H](O[C@H]2OC(CN)=CC[C@H]2N)[C@H](O)[C@H]1O[C@H]1OC[C@](C)(O)[C@H](NC)[C@H]1O [NETILMICIN] | Not Active
CCOC(=O)C1=C(C)NC(C)=C(C(=O)OC)C1c1cccc([N+](=O)[O-])c1 (stereo unspecified) [NITRENDIPINE] | Not Active
C#C[C@]1(OC(C)=O)CC[C@H]2[C@@H]3CCC4=CC(=O)CC[C@@H]4[C@H]3CC[C@@]21C [NORETHINDRONE ACETATE] | Not Active
COc1ccc2[nH]c([S+]([O-])Cc3ncc(C)c(OC)c3C)nc2c1 (stereo unspecified) [OMEPRAZOLE] | Not Active
Cc1nccn1CC1CCc2c(c3ccccc3n2C)C1=O (stereo unspecified) [ONDANSETRON] | Not Active
